Measurements reported in PubChem BioAssay (NCI).
Several values for one entry are separate records, joined by “and”; a condition that tells them apart may be missing. Equal values may be shown once.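 48-hour exposure; five concentrations; linearly interpolated endpoints. GI50: concentration for 50% inhibition of growth. TGI denotes the concentration required for complete inhibition of growth.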

Assays:
Experiment in all cases: DTP human tumour cell line panel, 48 h
[1] = tested on: A498 renal
[2] = tested on: CAKI-1 renal
[3] = tested on: CCRF-CEM leukemia
[4] = tested on: COLO 205 colon
[5] = tested on: MOLT-4 leukemia
[6] = tested on: OVCAR-3 ovarian
[7] = tested on: OVCAR-5 ovarian
[8] = tested on: RXF 393 renal
[9] = tested on: SF-295 CNS
[10] = tested on: SK-MEL-2 melanoma

Structure (SMILES)	TGI [1]	TGI [2]	TGI [3]	TGI [4]	TGI [5]	TGI [6]	TGI [7]	TGI [8]	TGI [9]	TGI [10]	GI50 [1]	GI50 [2]	GI50 [3]	GI50 [4]	GI50 [5]	GI50 [6]	GI50 [7]	GI50 [8]	GI50 [9]	GI50 [10]
CCCCc1c2c(nc3c1CCc1cc(C=O)c(N)nc1-3)/C(=C/c1ccccc1)CCC2	47.5 µM	> 100 µM	> 100 µM	32.3 µM	> 100 µM	> 100 µM	> 100 µM	> 100 µM	> 100 µM	> 100 µM	–	–	–	–	–	–	–	–	–	–
COc1cc2c3c(c1OC)C1(C=CC(=O)C=C1)CC3N(C(=O)OC(C)(C)C(Cl)(Cl)Cl)CC2 (stereo not given)	31.9 µM	50.9 µM	87.7 µM	29 µM	17.9 µM	20.7 µM	38.4 µM	18.5 µM	28.9 µM	25.2 µM	–	–	–	–	–	–	–	–	–	–
COC(=O)c1ccc2c(c1)[n+](=O)c(C(C)=O)c(C(F)(F)F)n2[O-]	3.3 µM	5.07 µM	> 100 µM	3.95 µM	17.6 µM	3.27 µM	3.11 µM	3.86 µM	2.78 µM	4.8 µM	1.72 µM	1.94 µM	4.62 µM	1.95 µM	2.95 µM	1.82 µM	1.67 µM	2.04 µM	1.33 µM	2.23 µM
NS(=O)(=O)OC[C@H]1O[C@@H](n2cnc3c(N[C@H]4CCc5ccccc54)ncnc32)[C@H](O)[C@@H]1O	0.124 µM	0.181 µM	> 100 µM	0.22 µM	1.99 µM	0.145 µM	2.24 µM	0.506 µM	1.94 µM	0.434 µM	0.0288 µM	0.054 µM	0.0419 µM	0.043 µM	0.22 µM	0.0409 µM	0.305 µM	0.258 µM	0.387 µM	0.098 µM
O=C(/C=C(\O)C(=O)O)/C=C(\O)c1ccc(Cl)cc1	> 100 µM	> 100 µM	> 100 µM	> 100 µM	> 100 µM	> 100 µM	> 100 µM	> 100 µM	> 100 µM	> 100 µM	–	–	–	–	–	–	–	–	–	–
CCCCCc1c(C)[nH]c(/C=C2\N=C(c3ccc[nH]3)C=C2Oc2ccc(OC)cc2)c1C	1.19 µM and 0.234 µM	0.449 µM and 0.333 µM	> 100 µM	0.502 µM and 0.19 µM	1.17 µM and 1.67 µM	0.511 µM and 0.318 µM	4.56 µM and 2.02 µM	0.567 µM and 0.244 µM	0.735 µM and 0.437 µM	0.302 µM and 0.0836 µM	0.194 µM and 0.0304 µM	0.136 µM and 0.0363 µM	0.0257 µM	0.125 µM and 0.028 µM	0.107 µM and 0.0481 µM	0.156 µM and 0.0414 µM	0.128 µM and 0.0591 µM	0.12 µM and 0.0294 µM	0.18 µM and 0.0775 µM	0.116 µM and 0.0299 µM
COc1ccc(C2CC(c3cccc(Nc4ccnc5cc(Cl)ccc45)c3)=NN2c2ccccc2)cc1 (stereo not given)	81.2 µM	> 100 µM	37.9 µM	8.66 µM	27.6 µM	> 100 µM	61.7 µM	49.7 µM	16.4 µM	10.4 µM	2.87 µM	0.681 µM	0.546 µM	1.43 µM	0.432 µM	3.2 µM	11.8 µM	8.91 µM	1.62 µM	2.07 µM
Cc1cc(CC(O)(C(F)(F)F)C(F)(F)F)cc(CC(O)(C(F)(F)F)C(F)(F)F)n1	7.87 µM	> 100 µM	12 µM	3.33 µM	13.2 µM	2.76 µM	19.2 µM	14.9 µM	9.94 µM	5.45 µM	–	–	–	–	–	–	–	–	–	–
S=c1sc2ccccc2n1CN1CCN(Cc2ccccc2)CC1	> 100 µM	> 100 µM	> 100 µM	> 100 µM	> 100 µM	> 100 µM	> 100 µM	> 100 µM	> 100 µM	> 100 µM	–	–	–	–	–	–	–	–	–	–
Oc1ccc(Br)cc1CN1CCN(Cc2ccc(Cl)cc2)CC1	45 µM	> 100 µM	> 100 µM	51.1 µM	> 100 µM	> 100 µM	75.2 µM	80 µM	> 100 µM	40.3 µM	0.4 µM	22.7 µM	24.3 µM	21.7 µM	26.7 µM	26.3 µM	21.2 µM	17.3 µM	18.6 µM	13.2 µM
O=c1c2ccccc2oc2nccnc12	> 100 µM	> 100 µM	> 100 µM	> 100 µM	> 100 µM	> 100 µM	> 100 µM	> 100 µM	> 100 µM	> 100 µM	–	–	–	–	–	–	–	–	–	–
NC(=O)NC1=NCCC(=O)N1CCc1c[nH]c2ccccc12	46.1 µM	6.54 µM	37.9 µM	27.9 µM	39.1 µM	47.8 µM	> 100 µM	48.3 µM	> 100 µM	29.3 µM	–	–	–	–	–	–	–	–	–	–
COC1=C(C(=O)OC(C)(C)C)C23CCCCC2(C(C(=O)OC(C)(C)C)=C(OC)C3C(=O)OC(C)(C)C)C1C(=O)OC(C)(C)C (stereo not given)	> 100 µM	> 100 µM	> 100 µM	32.8 µM	44.4 µM	> 100 µM	> 100 µM	> 100 µM	> 100 µM	> 100 µM	–	–	–	–	–	–	–	–	–	–
O=C(CCCCCCCCC(=O)OCCCn1cc(C(=O)NC(=O)OCc2ccccc2)c(=O)[nH]c1=O)OCCCn1cc(C(=O)NC(=O)OCc2ccccc2)c(=O)[nH]c1=O	> 100 µM	> 100 µM	> 100 µM	> 100 µM	> 100 µM	> 100 µM	> 100 µM	> 100 µM	> 100 µM	> 100 µM	–	–	–	–	–	–	–	–	–	–
COC1=C(NC(C)=O)C(=O)c2nc3n(c2C1=O)CCC3	50.2 µM	32.8 µM	14.1 µM	38.6 µM	> 66.8 µM	30.3 µM	34.6 µM	31.7 µM	40.3 µM	32.7 µM	–	–	–	–	–	–	–	–	–	–
COc1ccc(NC(=O)CC(=O)n2nc(-c3ccccc3)c(N=Nc3ccc(C)cc3)c2-c2ccccc2)cc1	> 76.5 µM	> 100 µM	> 100 µM	> 100 µM	> 100 µM	77.2 µM	> 100 µM	46.4 µM	52.2 µM	65.2 µM	–	–	–	–	–	–	–	–	–	–
COC1=CC(=O)c2c(O)c3c(c(O)c2C1=O)CC(C)(O)OC3 (stereo not given)	25.2 µM	16.5 µM	17.4 µM	4.76 µM	8.68 µM	7.08 µM	14.6 µM	16.5 µM	13.9 µM	9.9 µM	–	–	–	–	–	–	–	–	–	–
